Results: patent US12545685B2 (Daiichi Sankyo Company, Limited, priority 2011, dated 2026)

How the values were obtained:
[1] = molecular target: T1, Mdm2/p53 binding (GST-Mdm2 / His-p53) (Homo sapiens, UniProt Q00987, L33E); test: Mdm2/p53 binding assay (HTRF, His-p53 and GST-Mdm2); details: His-p53 (aa 1-132) and GST-Mdm2 (aa 25-108, L33E) 6.25 nM each; 25°C, 1 hour; values given as ranges
T1 construct: Mdm2 partial protein having Mdm2 amino acids at positions 25 to 108
Method in brief: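 Binding was detected by HTRF (ex 320 nm, em 620/665 nm) after 1 h at 25 °C, using Eu-cryptate anti-GST and XL665 anti-His antibodies. The protein pair was GST-Mdm2 (residues 25–108, L33E) with His-p53 (residues 1–132), each 6.25 nM in the protein dilution. T/C used no-compound control and no-p53 background, and IC50 came from sigmoid fitting.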

[2] = tested on: human lung cancer-derived cell line NCI-H460 having wild-type p53; test: Cell growth inhibition assay (MTT); type: cell-based; details: 72 h, NCI-H460 cells, 3 days culture, values given as ranges, read-out: 50% growth inhibition concentration (GI50 value)
Description: A cell growth inhibition assay was conducted using a human lung cancer-derived cell line NCI-H460 having wild-type p53.
NCI-H460 cells were suspended in a medium (RPMI1640 medium containing 10% fetal bovine serum) and the suspension was added in an amount of 500 cells/150 μl/well to a 96-well plate. A test compound was dissolved in DMSO and this solution was diluted with medium to prepare a sample solution (DMSO concentration: 1% or lower). On the next day, medium nonsupplemented with the test compound, or the sample solution, was added in an amount of 50 μl/well. Cells were then cultured at 37° ° C. for 3 days in a 5% CO2 atmosphere.
An MTT assay was conducted immediately after the nonsupplemented medium or the sample solution was added. Another MTT assay was conducted after culturing the cells for 3 days. The MIT assays were conducted as shown below.
A 5 mg/ml MTT (3-(4,5-dimethylthiazol-2-yl)-2,5-diphenyltetrazolium bromide, Sigma-Aldrich Co., M-2128) solution was prepared using a phosphate buffer solution (Dulbecco's Phosphate-buffered Saline). This MIT solution was added in an amount of 20 μl/well. Then the plate was cultured at 37° ° C. for 4 hours in a 5% CO2 atmosphere. The plate was centrifuged at 1200 rpm for 5 minutes and then the culture supernatant was removed by aspiration using a dispenser. DMSO was added in an amount of 150 μl/well to dissolve generated formazan. The plate was stirred using a plate mixer for uniform color development from each well. The absorbance of each well was measured at OD 540 nm and at a reference OD (660 nm) using a plate reader (SpectraMax PLUS384, Molecular Devices, CA, USA).
The OD value measured on the day of adding the sample solution was defined as S. The OD value measured three days after addition of the sample solution was defined as T. The OD value measured three days after addition of the DMSO dilution was defined as C. T/C (%) was determined at each concentration according to the formula shown below in order to prepare a dose response curve, from which 50% growth inhibition concentration (GI50 value) was calculated.

T1 sequence (Q00987 25-108 L33E): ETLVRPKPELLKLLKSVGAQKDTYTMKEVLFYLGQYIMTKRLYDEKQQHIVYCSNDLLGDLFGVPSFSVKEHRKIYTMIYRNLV

| Compound | IC50 [1] [µM] | GI50 [2] [µM] |
| --- | --- | --- |
| CC1(C)CCC2(CC1)N[C@@H](C(=O)N[C@H]1CO[C@H](CO)[C@@H](O)C1)[C@H](c1ccnc(Cl)c1F)[C@]21C(=O)Nc2cc(Cl)ccc21 [Example 29] | 0.001 to 0.05 | 1 to 5 |
| CC1(C)CCC2(CC1)N[C@@H](C(=O)N[C@H]1CO[C@H](CO)[C@@H](O)C1)[C@H](c1cccc(Cl)c1F)[C@]21C(=O)Nc2nc(Cl)ccc21 [Example 30, (3′R, 4′S,5′R)-6″-chloro-4′-(3-chloro-2-fluorophenyl)-N-[(3R,5S,6R)-5-hydroxy-6-(hydroxymethyl)tetrahydro-2H-pyran-3-yl]-4,4-dimethyl-2″-oxo-1″,2″-dihydrodispiro[cyclohexane-1,2′-pyrrolidine-3′,3″-pyrrolo[2,3-b]pyridine]-5′-carboxamide] | 0.001 to 0.05 | 1 to 5 |
| CC1(C)CCC2(CC1)N[C@@H](C(=O)N[C@@H]1CC[C@@H](c3nnco3)OC1)[C@H](c1ccnc(Cl)c1F)[C@]21C(=O)Nc2cc(Cl)ccc21 [Example 34, (3′R, 4′S,5′R)-6″-chloro-4′-(2-chloro-3-fluoropyridin-4-yl)-4,4-dimethyl-N-[(3R,6S)-6-(1,3,4-oxadiazol-2-yl)tetrahydro-2H-pyran-3-yl]-2″-oxo-1″,2″-dihydrodispiro[cyclohexane-1,2′-pyrrolidine-3′,3″-indole]-5′-carboxamide] | 0.001 to 0.05 | 0.1 to 0.5 |
| CC1(C)CCC2(CC1)N[C@@H](C(=O)N[C@H]1CC[C@H](c3n[nH]c(=O)o3)CC1)[C@H](c1ccnc(Cl)c1F)[C@]21C(=O)Nc2cc(Cl)ccc21 [Example 35, (3′R, 4′S, S′R)-6″-chloro-4′-(2-chloro-3-fluoropyridin-4-yl)-4,4-dimethyl-2″-oxo-N-[trans-4-(5-oxo-4,5-dihydro-1,3,4-oxadiazol-2-yl)cyclohexyl]-1″,2″-dihydrodispiro[cyclohexane-1,2′-pyrrolidine-3′,3″-indole]-5′-carboxamide] | 0.05 to 0.1 | < 0.1 |
| O=C(N[C@@H]1CC[C@@H](CO)OC1)[C@@H]1NC2(CC(CF)(CF)C2)[C@@]2(C(=O)Nc3cc(Cl)ccc32)[C@H]1c1cccc(Cl)c1F [Example 38, (3′R, 4′S,5′R)-6″-chloro-4′-(3-chloro-2-fluorophenyl)-3,3-bis(fluoromethyl)-N-[(3R,6S)-6-(hydroxymethyl)tetrahydro-2H-pyran-3-yl]-2″-oxo-1″,2″-dihydrodispiro [cyclobutane-1,2′-pyrrolidine-3′,3″-indole]-5′-carboxamide] | 0.001 to 0.05 | 0.1 to 0.5 |
| CC1(C)CCC2(CC1)N[C@@H](C(=O)N[C@H]1CC[C@@](O)(CO)CC1)[C@H](c1ccnc(Cl)c1F)[C@]21C(=O)Nc2cc(Cl)ccc21 [Example 40, (3′R, 4′S,5R)-6″-chloro-4′-(2-chloro-3-fluoropyridin-4-yl)-N-[trans-4-hydroxy-4-(hydroxymethyl)cyclohexyl]-4,4-dimethyl-2″-oxo-1″,2″-dihydrodispiro[cyclohexane-1,2′-pyrrolidine-3′,3″-indole]-5′-carboxamide] | 0.001 to 0.05 | 0.5 to 1 |
| CC1(C)CCC2(CC1)N[C@@H](C(=O)N[C@@H]1CC[C@@H](C(C)(C)O)OC1)[C@H](c1ccnc(Cl)c1F)[C@]21C(=O)Nc2nc(Cl)ccc21 [Example 47, (3′R, 4′S,5′R)-6″-chloro-4′-(2-chloro-3-fluoropyridin-4-yl)-N-[(3R,6S)-6-(1-hydroxy-1-methylethyl)tetrahydro-2H-pyran-3-yl]-4,4-dimethyl-2″-oxo-1″,2″-dihydrodispiro[cyclohexane-1,2′-pyrrolidine-3′,3″-pyrrolo[2,3-b]pyridine]-5′-carboxamide] | 0.05 to 0.1 | 0.5 to 1 |
| CC1(C)CCC2(CC1)N[C@@H](C(=O)N[C@H]1CC[C@H](c3n[nH]c(=O)o3)CC1)[C@H](c1ccnc(Cl)c1)[C@]21C(=O)Nc2cc(Cl)ccc21 [Example 51, (3′R, 4′R, 5′R)-6″-chloro-4′=(2-chloropyridin-4-yl)-4,4-dimethyl-2″-oxo-N-[trans-4-(5-oxo-4,5-dihydro-1,3,4-oxadiazol-2-yl)cyclohexyl]-1″,2″-dihydrodispiro[cyclohexane-1,2′-pyrrolidine-3′,3″-indole]-5′-carboxamide] | 0.05 to 0.1 | 0.1 to 0.5 |
| CC1(C)CCC2(CC1)N[C@@H](C(=O)N[C@@H]1CC[C@@H](c3nnco3)OC1)[C@H](c1ccnc(Cl)c1)[C@]21C(=O)Nc2cc(Cl)ccc21 [Example 53, (3′R, 4′R, 5′R)-6″-chloro-4′-(2-chloropyridin-4-yl)-4,4-dimethyl-N-[(3R,6S)-6-(1,3,4-oxadiazol-2-yl)tetrahydro-2-pyran-3-yl]-2″-oxo-1″,2″-dihydrodispiro[cyclohexane-1,2′-pyrrolidine-3′,3″-indole]-5′-carboxamide] | 0.001 to 0.05 | 0.5 to 1 |
| CC1(C)CCC2(CC1)N[C@@H](C(=O)N[C@H]1CC[C@H](c3nnco3)CC1)[C@H](c1ccnc(Cl)c1)[C@]21C(=O)Nc2cc(Cl)ccc21 [Example 54, (3′R, 4′R, 5′R)-6″-chloro-4′-(2-chloropyridin-4-yl)-4,4-dimethyl-N-[trans-4-(1,3,4-oxadiazol-2-yl)cyclohexyl]-2″-oxo-1″,2″-dihydrodispiro[cyclohexane-1,2′-pyrrolidine-3′,3″-indole]-5′-carboxamide] | 0.05 to 0.1 | 0.5 to 1 |
| CC1(C)CCC2(CC1)N[C@@H](C(=O)N[C@@H]1CC[C@@H](c3n[nH]c(=O)o3)OC1)[C@H](c1ccnc(Cl)c1F)[C@]21C(=O)Nc2cc(Cl)ccc21 [Example 57, (3′R, 4′S,5′R)-6″-chloro-4′-(2-chloro-3-fluoropyridin-4-yl)-4,4-dimethyl-2″-oxo-N-[(3R,6S)-6-(5-oxo-4,5-dihydro-1,3,4-oxadiazol-2-yl)tetrahydro-2H-pyran-3-yl]-1″,2″-dihydrodispiro[cyclohexane-1,2′-pyrrolidine-3′,3″-indole]-5′-carboxamide] | 0.001 to 0.05 | 0.1 to 0.5 |
| CC1(C)CCC2(CC1)N[C@@H](C(=O)N[C@H]1CC[C@H](C(N)=O)CC1)[C@H](c1ccnc(Cl)c1F)[C@]21C(=O)Nc2cc(Cl)ccc21 [Example 67, (3′R, 4′S,5′R)—N-(trans-4-carbamoylcyclohexyl)-6″-chloro-4′-(2-chloro-3-fluoropyridin-4-yl)-4,4-dimethyl-2′-oxo-1″,2″-dihydrodispiro[cyclohexane-1,2′-pyrrolidine-3′,3″-indole]-5′-carboxamide] | 0.001 to 0.05 | 0.1 to 0.5 |
| CO[C@@H]1C[C@@H](NC(=O)[C@@H]2NC3(CCC(C)(C)CC3)[C@@]3(C(=O)Nc4cc(Cl)ccc43)[C@H]2c2ccnc(Cl)c2F)CO[C@@H]1CO [Example 69, (3′R, 4′S,5′R)-6″-chloro-4′-(2-chloro-3-fluoropyridin-4-yl)-N-((3R,5R,6R)-6-(hydroxymethyl)-5-methoxytetrahydro-2H-pyran-3-yl)-4,4-dimethyl-2″-oxo-1″,2″-dihydrodispiro[cyclohexane-1,2′-pyrrolidine-3′,3″-indole]-5′-carboxamide] | 0.001 to 0.05 | 0.1 to 0.5 |
| CCNC(=O)[C@@H]1CC[C@@H](NC(=O)[C@@H]2NC3(CCC(C)(C)CC3)[C@@]3(C(=O)Nc4cc(Cl)ccc43)[C@H]2c2ccnc(Cl)c2F)CO1 [Example 88, (3′R, 4′S,5′R)-6″-chloro-4′-(2-chloro-3-fluoropyridin-4-yl)-N-[(3R,6S)-6-(ethylcarbamoyl)tetrahydro-2H-pyran-3-yl]-4,4-dimethyl-2″-oxo-1″,2″-dihydrodispiro[cyclohexane-1,2′-pyrrolidine-3′,3″-indole]-5′-carboxamide] | 0.05 to 0.1 | 0.1 to 0.5 |
